Measured values taken from patent US20050037402A1, “Device and process for direct quantitative in vitro determination of a substance that is contained in a sample” (priority 2003, published 2005).

What was measured:
[1] = Photophysical characterization of dye-antibody complexes (spectral shifts, fluorescence quantum yields); format: physicochemical; conditions: for Absorption Maximum (nm) / Fluorescence Maximum (nm) / Fluorescence Quantum Yield (%): 1 μmol/l dye, 2.4 μmol/l antibody in PBS; for Absorption Maximum (nm) / Fluorescence Maximum (nm): 2 hours at room temperature; for Fluorescence Quantum Yield (%): relative to indocyanine green
Description: Dye-antibody complexes based on antibodies with binding to the indotricarbocyanine dye trisodium-3,3-dimethyl-2-{4-methyl-7-[3,3-dimethyl-5-sulfonato-1-(2-sulfonatoethyl)-3H-indolium-2-yl]hepta-2,4,6-trien-1-ylidene}-1-(2-sulfonatoethyl)-2,3-dihydro-1H-indole-5-sulfonate, inner salt, were examined (see Example 1). Solutions of the concentration of 1 μmol/l of the above-mentioned dye and 2.4 μmol/l of the respective antibody in PBS were produced and incubated for 2 hours at room temperature. The absorption maxima were determined with a spectral photometer (Perkin-Elmer, Lambda2). The fluorescence maxima and fluorescence quantum yields were determined with a SPEX fluorolog (wavelength-dependent sensitivity calibrated by lamp and detector) relative to indocyanine green (Q=0.13 in DMSO, J Chem Eng Data 1977, 22, 379, Bioconjugate Chem 2001, 12, 44). From the absorption and fluorescence maxima, the spectral shifts were calculated relative to the maxima of a solution of the above-mentioned dye without antibodies in PBS (1 μmol/l) (absorption max. 754 nm, fluorescence max. 783 nm, fluorescence quantum yield 10%).

[2] = in DMSO; cited from earlier work
[3] = bound by 12-mer peptides; cited from earlier work
[4] = Inhibition-ELISA for binding of the unconjugated dye by selected HuCAL GOLD Fab fragments
Description: The purified and concentrated phagemids of the HuCAL GOLD antibody library were used in a standard selection process. As antigens, BSA- or transferrin-coupled ZK203468 were used alternately. The antigens were taken up in PBS and applied at concentrations of 50 μg/ml on Maxisorp™ microtiter plates F96 (Nunc). The maxisorp plates were incubated overnight at 4° C. (“coating”). After the maxisorp plates were blocked with 5% milk powder in PBS, about 2E+13 HuCAL GOLD phages were added to the antigen-loaded, blocked-off spots and incubated there overnight or for two hours at room temperature. After several washing steps, which became more stringent with progressive selection rounds, bonded phages were eluted with 20 mmol of DTT or 100 μmol of unconjugated ZK203468. Altogether, three successive selection rounds were carried out, whereby the phage amplification was carried out between the selection rounds, as described above.
Several thousand clones were isolated after the selection and sub-cloning and tested by means of ELISA in 384-well format for specific detection of the antigens ZK203468-BSA and—transferrin used in panning. Clones identified in this connection were studied in an inhibition-ELISA for efficient binding of the unconjugated dye.

[5] = dye without antibodies in PBS (1 μmol/l)
[6] = relative to the dye without antibodies in PBS (1 μmol/l)

CC(C=CC=C1N(CCS(=O)(=O)[O-])c2ccc(S(=O)(=O)[O-])cc2C1(C)C)=CC=CC1=[N+](CCS(=O)(=O)[O-])c2ccc(S(=O)(=O)[O-])cc2C1(C)C.[Na+].[Na+].[Na+] [ZK203468, Trisodium-3,3-dimethyl-2-{4-methyl-7-[3,3-dimethyl-5-sulfonato-1-(2-sulfonatoethyl)-3H-indolium-2-yl]hepta-2,4,6-trien-1-ylidene}-1-(2-sulfonatoethyl)-2,3-dihydro-1H-indole-5-sulfonate, Inner Salt]
Absorption Maximum (nm) [1]: 754 nm | Fluorescence Maximum (nm) [1]: 783 nm | absorption max. [1, 5]: 754 nm | fluorescence max. [1, 5]: 783 nm | fluorescence quantum yield [1, 5]: 10% | Fluorescence Quantum Yield (%) [1]: 10.0%

CC1(C)C(/C=C/C=C/C=C/C=C2\N(CCCCS(=O)(=O)O)c3ccc4ccccc4c3C2(C)C)=[N+](CCCCS(=O)(=O)[O-])c2ccc3ccccc3c21 [indocyanine green]
fluorescence quantum yield Q [2]: 0.13

Texas Red
red shift of the absorption [3]: 2.8 nm | red shift of the fluorescence [3]: 1.4 nm

B1: MOR02965: HuCAL GOLD Fab fragment binding dye ZK203468; protein SEQ-ID NO: 5 (VH-CH) and 6 (VL-CL) (antibody)
heavy: QVQLQQSGPGLVKPSQTLSLTCAISGDSVSSNSAAWSWIRQSPGRGLEWLGRIYYRSKWYNDYAVSVKSRITINPDTSKNQFSLQLNSVTPEDTAVYYCARTSFYQKLFFIAFDHWGQGTLVTVSSASTKGPSVFPLAPSSKSTSGGTAALGCLVKDYFPEPVTVSWNSGALTSGVHTFPAVLQSSGLYSLSSVVTVPSSSLGTQTYICNVNHKPSNTKVDKKVEPKSEFEQKLISEEDLNGAPWSHPQFEK
light: DIALTQPASVSGSPGQSITISCTGTSSDGGAYHYVSWYQQHPGKAPKLMIYGVIYRPSGVSNRFSGSKSGNTASLTISGLQAEDEADYYCAAWDFRKRLNVFGGGTKLTVLGQPKAAPSVTLFPPSSEELQANKATLVCLISDFYPGAVTVAWKADSSPVKAGVETTTPSKQSNNKYAASSYLSLTPEQWKSHRSYSCQVTHEGSTVEKTVAPTEA
modifications: Fab fragment of variable heavy chain; Fab fragment of variable light chain
Absorption Maximum (nm) [1]: 799 nm | Fluorescence Maximum (nm) [1]: 815 nm | Fluorescence Quantum Yield (%) [1]: 13.0% | Absorption Shift (nm) [1, 6]: 45 nm | Fluorescence Shift (nm) [1, 6]: 32 nm | binding to the non-conjugated dye ZK203468 [4]: bind efficiently
